Measurements: PMC8948939 (Pharmaceutics, 2022)

Legend:
[1] = test system: CYP2C19 (loratadine), CYP2C9 (sulfaphenazole), CYP3A4 (ketoconazole); assay: in vitro; conditions: human; for inhibition at 3 µM: pH 7.5; for activity: pH 7.5, % of Uninhibited Control (voriconazole N-oxidation velocity), HLM
[2] = test system: human liver microsomes (HLM); conditions: mean over voriconazole 0.5, 1, 2, 3 µM
[3] = substrate: C[C@@H](c1ncncc1F)[C@](O)(Cn1cncn1)c1ccc(F)cc1F; assay: not read; conditions: other: N-oxidation of voriconazole

Molecule	inhibition at 3 µM [1] [%]	activity ([1]; voriconazole 0.5 µM) [%]	activity ([1]; voriconazole 1 µM) [%]	activity ([1]; voriconazole 2 µM) [%]	activity ([1]; voriconazole 3 µM) [%]	Mean (SD) % of Uninhibited Control [2]	Km ([3]; rhCYP2C19, pH 7.5)	Km ([3]; rhCYP2C9, pH 7.5)
CC(=O)N1CCN(c2ccc(OCC3COC(Cn4ccnc4)(c4ccc(Cl)cc4Cl)O3)cc2)CC1 (centres unmarked) [ketoconazole]	47.6	49.8	48.4	53.6	57.9	52.4 (4.26) %		
Nc1ccc(S(=O)(=O)Nc2ccnn2-c2ccccc2)cc1 [sulfaphenazole]	36.2	64.8	60.7	62.6	66.9	63.8 (2.69) %		
rhCYP2C19 (Homo sapiens) (protein) MDPFVVLVLCLSCLLLLSIWRQSSGRGKLPPGPTPLPVIGNILQIDIKDVSKSLTNLSKIYGPVFTLYFGLERMVVLHGYEVVKEALIDLGEEFSGRGHFPLAERANRGFGIVFSNGKRWKEIRRFSLMTLRNFGMGKRSIEDRVQEEARCLVEELRKTKASPCDPTFILGCAPCNVICSIIFQKRFDYKDQQFLNLMEKLNENIRIVSTPWIQICNNFPTIIDYFPGTHNKLLKNLAFMESDILEKVKEHQESMDINNPRDFIDCFLIKMEKEKQNQQSEFTIENLVITAADLLGAGTETTSTTLRYALLLLLKHPEVTAKVQEEIERVIGRNRSPCMQDRGHMPYTDAVVHEVQRYIDLIPTSLPHAVTCDVKFRNYLIPKGTTILTSLTSVLHDNKEFPNPEMFDPRHFLDEGGNFKKSNYFMPFSAGKRICVGEGLARMELFLFLTFILQNFNLKSLIDPKDLDTTPVVNGFASVPPFYQLCFIPV							1.31 (0.862–1.75) µM	
rhCYP2C9 (Homo sapiens) (protein) MDSLVVLVLCLSCLLLLSLWRQSSGRGKLPPGPTPLPVIGNILQIGIKDISKSLTNLSKVYGPVFTLYFGLKPIVVLHGYEAVKEALIDLGEEFSGRGIFPLAERANRGFGIVFSNGKKWKEIRRFSLMTLRNFGMGKRSIEDRVQEEARCLVEELRKTKASPCDPTFILGCAPCNVICSIIFHKRFDYKDQQFLNLMEKLNENIKILSSPWIQICNNFSPIIDYFPGTHNKLLKNVAFMKSYILEKVKEHQESMDMNNPQDFIDCFLMKMEKEKHNQPSEFTIESLENTAVDLFGAGTETTSTTLRYALLLLLKHPEVTAKVQEEIERVIGRNRSPCMQDRSHMPYTDAVVHEVQRYIDLLPTSLPHAVTCDIKFRNYLIPKGTTILISLTSVLHDNKEFPNPEMFDPHHFLDEGGNFKKSKYFMPFSAGKRICVGEALAGMELFLFLTSILQNFNLKSLVDPKNLDTTPVVNGFASVPPFYQLCFIPV								4.06 (3.32–4.81) µM
